Row | SMILES | melting point
1 | COCc1nc2c(N)nc3c(c2n1CC(C)(C)OCCS(C)(=O)=O)CCCC3 [Example 39, 2-(Methoxymethyl)-1-{2-methyl-2-[2-(methylsulfonyl)ethoxy]propyl}-6,7,8,9-tetrahydro-1H-imidazo[4,5-c]quinolin-4-amine] | 195 to 197 °C
2 | CCOCc1nc2c(N)nc3cccnc3c2n1CC(C)(C)OCCS(C)(=O)=O [Example 40, 2-Ethoxymethyl-1-{2-[2-(methylsulfonyl)ethoxy]-2-methylpropyl}-1H-imidazo[4,5-c][1,5]naphthyridin-4-amine] | 189 to 191 °C

From patent US7939526B2, “Sulfone substituted imidazo ring ethers” (3M Innovative Properties Company, priority 2003, dated 2011)
